Reference: patent US5079252A, “Therapeutic compounds” (priority 1988, dated 1992)
Where two headings read alike, the source gives them in different places.

Tests used:
[1] = tested on: Herpes Simplex Virus (HSV 1); assay: HSV 1 plaque reduction assay in Vero cell monolayers; format: cell-based; conditions: read-out: 50% inhibitory concentration (IC50)
Description: Herpes Simplex Virus (HSV 1) was assayed in monolayers of Vero cells in multiwell trays. Activity of compounds was determined in the plaque reduction assay, in which a cell monolayer was infected with a suspension of HSV 1, and then overlaid with nutrient agarose in the form of a gel to ensure that there was no spread of virus throughout the culture. A range of concentrations of compound of known molarity was incorporated in the nutrient agarose overlay. Plaque numbers at each concentration are expressed as percentages of the control and a dose-response curve was drawn. From this curve the 50% inhibitory concentration (IC50) was estimated.

[2] = Oral bioavailability in rats: urinary recovery as acyclovir after oral administration (gavage); format: in vivo, Long Evans Rates (rats)
Description: Long Evans Rates are administered the compound to be tested by gavage at a dose equivalent to 25 mg/kg acyclovir. The urine is collected for 24 and 48 hours post-dose, ultrafiltered, and analysed by reverse-phase high-pressure liquid chromatography. The oral bioavailability of the compound is expressed as the percent of the dose excreted in the urine as acyclovir.

[3] = Plasma levels of acyclovir after oral administration in animals; format: in vivo
[4] = background statement; cited from earlier work
[5] = cited from earlier work
herpes viruses = conditions: cited from earlier work

Row | SMILES | IC50 ([1]; HSV 1, Vero cells, plaque reduction) [nM] | bioavailability compared with acyclovir or the esters disclosed in UK 1523865 and 1561380 ([2]; oral) | Urinary Recovery (% of dose) as acyclovir ([2]; rats, gavage, dose equivalent to 25 mg/kg acyclovir, urine 24 and 48 hours post-dose) | levels of acyclovir in the plasma [3] | IC50 ([1]; Vero) [nM] | absorption from the gastrointestinal tract after oral administration [4] | solubility in water [5] | antiviral activity, particularly against herpes viruses (herpes viruses)
1 | CCCCC(=O)OCCOCn1cnc2c(=O)[nH]c(N)nc21 [Example A, 9-(2-valeryloxyethoxymethyl)guanine] | 200 | improved bioavailability | 34 % of dose | measurable levels of acyclovir in the plasma | – | – | – | –
2 | Nc1nc2c(ncn2COCCO)c(=O)[nH]1 [Acyclovir, 9-(2-Hydroxyethoxymethyl)guanine] | – | – | – | – | ~100 | only poorly absorbed | poorly soluble | potent antiviral activity
